Results as given in the NIST ThermoML archive (doi:10.1016/j.jct.2018.02.013).

Legend:
[1] = 101.33 kPa, Liquid; for thermal conductivity: transient hot wire; for mass density: Vibrating tube method; for viscosity: Cone and plate viscometry; for electrical conductivity: Direct current cell with electrodes
[2] = molar heat capacity at constant pressure; details: 101.33 kPa, Liquid, Small sample (50 mg) DSC

CCCC(=O)[O-].CCCCCCCCCCCCCC[P+](CCCCCC)(CCCCCC)CCCCCC [trihexyl(tetradecyl)phosphonium butyrate]
Details	electrical conductivity [S/m]	mass density [kg/m3]	molar heat capacity at constant pressure [J/K/mol]	thermal conductivity [W/m/K]	viscosity [mPa·s]
[1], 277.77 K	–	–	–	0.16	–
[1], 288.17 K	–	–	–	0.159	–
[1], 293.15 K	–	893	–	–	–
[1], 293.2 K	–	–	–	–	334.3
[1], 295.2 K	0.00389	–	–	–	–
[1], 298.15 K	–	890.4	–	–	–
[1], 298.2 K	–	–	–	–	251.1
[1], 298.48 K	–	–	–	0.1566	–
[1], 303.15 K	–	887.8	–	–	–
[1], 303.2 K	–	–	–	–	190.2
[1], 303.8 K	0.00631	–	–	–	–
[1], 306.44 K	–	–	–	0.1553	–
[1], 308.2 K	–	–	–	–	146.3
[1], 308.5 K	0.0083	–	–	–	–
[1], 313.15 K	–	881.2	–	–	–
[1], 313.2 K	–	–	–	–	115
[1], 313.9 K	0.0106	–	–	–	–
[1], 318.11 K	–	–	–	0.1543	–
[1], 318.2 K	–	–	–	–	91.46
[1], 318.5 K	0.0137	–	–	–	–
[1], 323.15 K	–	875.1	–	–	–
[1], 323.2 K	–	–	–	–	74.08
[1], 323.6 K	0.0172	–	–	–	–
[1], 327.69 K	–	–	–	0.1526	–
[1], 328.2 K	–	–	–	–	60.22
[1], 328.8 K	0.0214	–	–	–	–
[1], 333.15 K	–	869	–	–	–
[1], 333.2 K	–	–	–	–	49.78
[1], 333.8 K	0.0261	–	–	–	–
[1], 336.59 K	–	–	–	0.1509	–
[1], 338.2 K	–	–	–	–	41.11
[1], 338.7 K	0.0315	–	–	–	–
[1], 343.15 K	–	862.7	–	–	–
[1], 343.2 K	–	–	–	–	34.26
[1], 343.9 K	0.0377	–	–	–	–
[1], 348.16 K	–	–	–	0.1503	–
[1], 348.2 K	–	–	–	–	28.85
[1], 349.1 K	0.0446	–	–	–	–
[1], 353.15 K	–	856.7	–	–	–
[1], 353.2 K	–	–	–	–	24.66
[1], 355.83 K	–	–	–	0.1492	–
[1], 358.2 K	–	–	–	–	21.36
[1], 363.15 K	–	850.3	–	–	–
[1], 363.2 K	–	–	–	–	18.76
[1], 368.2 K	–	–	–	–	16.49
[2], 293.15 K	–	–	1107.1	–	–
[2], 298.15 K	–	–	1112.8	–	–
[2], 303.15 K	–	–	1118.5	–	–
[2], 308.15 K	–	–	1123.6	–	–
[2], 313.15 K	–	–	1129.9	–	–
[2], 318.15 K	–	–	1136.2	–	–
[2], 323.15 K	–	–	1142.5	–	–
[2], 328.15 K	–	–	1148.2	–	–
[2], 333.15 K	–	–	1154.5	–	–
[2], 338.15 K	–	–	1161.3	–	–
[2], 343.15 K	–	–	1168.2	–	–
[2], 348.15 K	–	–	1175	–	–
[2], 353.15 K	–	–	1181.9	–	–
[2], 358.15 K	–	–	1188.7	–	–
[2], 363.15 K	–	–	1196.1	–	–
